# Experimental data as given in ChEMBL document CHEMBL1201862, “PubChem BioAssay data set” (2004).
#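 Five compound concentrations were applied to cells in 96-well plates for 48 hours; endpoints were derived by simple linear interpolation of the resulting dose-response curve. GI50 marks 50% less growth.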 Active and inactive are the calls of the source. Rule as the data show it: active = GI50 up to about 1.1 µM and inactive = higher.
# Columns and labels:
# Test in all cases: inhibition of tumour cell growth, NCI panel, 48 h
# SK-MEL-28 = tested on: SK-MEL-28
# TK-10 = tested on: TK-10
# RPMI-8226 = tested on: RPMI-8226
# HCT-15 = tested on: HCT-15
# DLD-1 = tested on: DLD-1
# K562 = tested on: K562
# DMS-273 = tested on: DMS-273
# LOX IMVI = tested on: LOX IMVI
# KM12 = tested on: KM12
# SN12C = tested on: SN12C
# UACC-257 = tested on: UACC-257
# MOLT-4 = tested on: MOLT-4
# NCI-H460 = tested on: NCI-H460
# SNB-78 = tested on: SNB-78
# OVCAR-3 = tested on: OVCAR-3
# SNB-19 = tested on: SNB-19
# HOP-62 = tested on: HOP-62
# SK-MEL-2 = tested on: SK-MEL-2
# BT-549 = tested on: BT-549
# Hs-578T = tested on: Hs-578T
Compound,GI50 (SK-MEL-28),GI50 (TK-10),GI50 (RPMI-8226),GI50 (HCT-15) [µM],GI50 (DLD-1),GI50 (K562),GI50 (DMS-273),GI50 (LOX IMVI),GI50 (KM12),GI50 (SN12C),GI50 (UACC-257),GI50 (MOLT-4),GI50 (NCI-H460),GI50 (SNB-78),GI50 (OVCAR-3),GI50 (SNB-19),GI50 (HOP-62),GI50 (SK-MEL-2),GI50 (BT-549),GI50 (Hs-578T)
[O-][S+]1c2ccccc2N=C(c2ccc(Cl)cc2)CC1c1cccs1 (stereo not given),19.3 µM (inactive),39.3 µM (inactive),17 µM (inactive),15.5,12.2 µM (inactive),9.25 µM (inactive),14.6 µM (inactive),12.6 µM (inactive),14.7 µM (inactive),19 µM (inactive),23.2 µM (inactive),26 µM (inactive),36.8 µM (inactive),35 µM (inactive),1.68 µM (inactive),21.1 µM (inactive),79.3 µM (inactive),–,–,–
CC(=O)O/C=C(/C=C/OC(C)=O)C(C/C=C(\C)C#CC=C(C)C)OC(C)=O (stereo not given),–,> 100 µM (inactive),25.8 µM (inactive),17.7,45.8 µM (inactive),21 µM (inactive),50.8 µM (inactive),26.1 µM (inactive),23.1 µM (inactive),36.6 µM (inactive),33.7 µM (inactive),21.1 µM (inactive),> 100 µM (inactive),29.9 µM (inactive),24.2 µM (inactive),> 100 µM (inactive),> 100 µM (inactive),> 100 µM (inactive),–,–
CCN(CC)CC1CCCCCCCCCCC1=O (stereo not given),> 100 µM (inactive),> 100 µM (inactive),> 100 µM (inactive),> 100,> 100 µM (inactive),> 100 µM (inactive),> 100 µM (inactive),> 100 µM (inactive),> 100 µM (inactive),> 100 µM (inactive),> 100 µM (inactive),> 100 µM (inactive),> 100 µM (inactive),> 100 µM (inactive),> 100 µM (inactive),> 100 µM (inactive),> 100 µM (inactive),> 100 µM (inactive),–,–
O=C(Nc1ccc(/N=N/c2ccccc2)cc1)Sc1ccccc1C(=O)O,> 100 µM (inactive),> 100 µM (inactive),> 100 µM (inactive),> 100,–,> 100 µM (inactive),> 100 µM (inactive),> 100 µM (inactive),> 100 µM (inactive),> 100 µM (inactive),> 100 µM (inactive),> 100 µM (inactive),> 100 µM (inactive),> 100 µM (inactive),> 100 µM (inactive),> 100 µM (inactive),> 100 µM (inactive),> 100 µM (inactive),–,–
CCCCS(=O)(=O)Nc1ccc(Nc2c3ccccc3nc3ccccc23)c(OC)c1,5.74 µM (inactive),–,1.74 µM (inactive),1.71,7.6 µM (inactive),2.51 µM (inactive),0.395 µM (active),1.26 µM (inactive),3.45 µM (inactive),0.828 µM (active),6 µM (inactive),0.0718 µM (active),0.0863 µM (active),5.5 µM (inactive),6.98 µM (inactive),1.94 µM (inactive),1.86 µM (inactive),16.9 µM (inactive),–,–
O=S(OC12CC3CC(CC(C3)C1)C2)c1cc(Cl)cc(Cl)c1OCc1ccccc1 (stereo not given),> 100 µM (inactive),> 100 µM (inactive),–,–,> 100 µM (inactive),> 100 µM (inactive),–,> 100 µM (inactive),> 100 µM (inactive),> 100 µM (inactive),> 100 µM (inactive),> 100 µM (inactive),> 100 µM (inactive),> 100 µM (inactive),> 100 µM (inactive),> 100 µM (inactive),> 100 µM (inactive),> 100 µM (inactive),–,–
CCOC(=O)C(=C=C=C(c1ccccc1)c1ccccc1)C(=O)OCC,17.4 µM (inactive),16 µM (inactive),14.1 µM (inactive),19.6,18.5 µM (inactive),11.3 µM (inactive),20.3 µM (inactive),17.1 µM (inactive),19.6 µM (inactive),20.7 µM (inactive),16.8 µM (inactive),9.08 µM (inactive),22.8 µM (inactive),16.9 µM (inactive),15.5 µM (inactive),21.5 µM (inactive),18.9 µM (inactive),16.6 µM (inactive),–,–
CC(=O)CCC1(c2ccccc2)OC(=O)C(C#N)=C1c1ccccc1 (stereo not given),> 100 µM (inactive),> 100 µM (inactive),39.8 µM (inactive),> 100,> 100 µM (inactive),50.6 µM (inactive),> 100 µM (inactive),> 100 µM (inactive),> 100 µM (inactive),> 100 µM (inactive),> 100 µM (inactive),33.7 µM (inactive),> 100 µM (inactive),> 100 µM (inactive),86.3 µM (inactive),> 100 µM (inactive),> 100 µM (inactive),> 100 µM (inactive),–,–
O=C1/C(=N\O)c2ccccc2S1(=O)=O,–,61.5 µM (inactive),64.3 µM (inactive),> 100,> 100 µM (inactive),> 100 µM (inactive),> 100 µM (inactive),> 100 µM (inactive),> 100 µM (inactive),> 100 µM (inactive),> 100 µM (inactive),> 100 µM (inactive),> 100 µM (inactive),> 100 µM (inactive),–,> 100 µM (inactive),> 100 µM (inactive),> 100 µM (inactive),–,–
COc1ccc2c(c1)CCCN2CCCCCCCCCCN(CCC(C)C)CCC(C)C,13.6 µM (inactive),16.4 µM (inactive),2.26 µM (inactive),8.34,10.5 µM (inactive),4.24 µM (inactive),10.1 µM (inactive),12.4 µM (inactive),4.55 µM (inactive),–,14.9 µM (inactive),5.58 µM (inactive),11.2 µM (inactive),16.8 µM (inactive),4.79 µM (inactive),13.9 µM (inactive),13.1 µM (inactive),9.4 µM (inactive),–,–
COC(=O)NNc1c([N+](=O)[O-])cnn(-c2ccccc2)c1=O,3.83 µM (inactive),18.1 µM (inactive),2.44 µM (inactive),2.45,2.06 µM (inactive),1.04 µM (active),1.98 µM (inactive),1.66 µM (inactive),5.19 µM (inactive),1.99 µM (inactive),2.51 µM (inactive),0.815 µM (active),3.96 µM (inactive),–,1.97 µM (inactive),10.5 µM (inactive),7.21 µM (inactive),2.95 µM (inactive),1.82 µM (inactive),4.53 µM (inactive)
COc1ccccc1CC(C)N (stereo not given),> 100 µM (inactive),> 100 µM (inactive),> 100 µM (inactive),> 100,> 100 µM (inactive),> 100 µM (inactive),> 100 µM (inactive),> 100 µM (inactive),> 100 µM (inactive),> 100 µM (inactive),> 100 µM (inactive),–,> 100 µM (inactive),> 100 µM (inactive),> 100 µM (inactive),> 100 µM (inactive),> 100 µM (inactive),> 100 µM (inactive),–,–
CC1NCCc2c1[nH]c1cc(O)ccc21 (stereo not given),> 100 µM (inactive),> 100 µM (inactive),> 100 µM (inactive),> 100,> 100 µM (inactive),> 100 µM (inactive),–,> 100 µM (inactive),> 100 µM (inactive),> 100 µM (inactive),> 100 µM (inactive),> 100 µM (inactive),> 100 µM (inactive),> 100 µM (inactive),> 100 µM (inactive),> 100 µM (inactive),> 100 µM (inactive),> 100 µM (inactive),–,–
CCOC(=O)C1Nc2ccc([N+](=O)[O-])cc2[C@H]2OCC[C@@H]12 (stereo not given in full),> 100 µM (inactive),> 100 µM (inactive),–,> 100,> 100 µM (inactive),> 100 µM (inactive),> 100 µM (inactive),> 100 µM (inactive),> 100 µM (inactive),> 100 µM (inactive),> 100 µM (inactive),> 100 µM (inactive),> 100 µM (inactive),> 100 µM (inactive),> 100 µM (inactive),> 100 µM (inactive),> 100 µM (inactive),> 100 µM (inactive),–,–
Nc1nc(O)c2ncn(C3OC(CO)C(O)C3O)c2n1 (stereo not given),90.8 µM (inactive),–,–,–,65.3 µM (inactive),81.7 µM (inactive),58.7 µM (inactive),52.5 µM (inactive),80 µM (inactive),79.8 µM (inactive),–,48.2 µM (inactive),–,95.3 µM (inactive),23.2 µM (inactive),–,8.63 µM (inactive),71.1 µM (inactive),–,–
Cc1cn(C2CC(N(O)Cc3ccccc3)C(CO)O2)c(=O)[nH]c1=O (stereo not given),> 100 µM (inactive),> 100 µM (inactive),> 100 µM (inactive),> 100,–,> 100 µM (inactive),> 100 µM (inactive),> 100 µM (inactive),> 100 µM (inactive),> 100 µM (inactive),> 100 µM (inactive),> 100 µM (inactive),> 100 µM (inactive),> 100 µM (inactive),> 100 µM (inactive),> 100 µM (inactive),> 100 µM (inactive),–,–,–
Cc1cc(O)c2c(c1)C(=O)c1c(c(O)cc(O)c1-c1c(O)cc(O)c3c1C(=O)c1cc(C)cc(O)c1C3=O)C2=O [SKYRIN],11.7 µM (inactive),–,5.93 µM (inactive),8.61,8.75 µM (inactive),7.87 µM (inactive),7.76 µM (inactive),12.9 µM (inactive),9.08 µM (inactive),10.6 µM (inactive),17.5 µM (inactive),8.59 µM (inactive),9.08 µM (inactive),26.9 µM (inactive),6.31 µM (inactive),2.5 µM (inactive),12.4 µM (inactive),11.5 µM (inactive),–,–
